Test results published in PubChem BioAssay (NCI).
Several values for one entry are separate records, joined by “and”; a condition that tells them apart may be missing. Identical values can stand only once.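 Step 1: Grow cells in 96-well plates. Step 2: Expose to compound for 48 hours at 5 concentrations. Step 3: Interpolate endpoints linearly; if unreached, use highest concentration. The concentration for 50% growth inhibition is given as GI50. TGI denotes the concentration required for complete inhibition of growth.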

Experiments:
Assay in all cases: NCI-60 cell line screen, 48 h
[1] = test system: MDA-N
[2] = test system: HOP-18 NSCLC
[3] = test system: DLD-1 colon
[4] = test system: SNB-78 CNS
[5] = test system: XF 498 CNS
[6] = test system: DMS 273 small cell lung
[7] = test system: LXFL 529 NSCLC
[8] = test system: DMS 114 small cell lung
[9] = test system: RXF-631 renal

Row | Compound | TGI [1] | TGI [2] | TGI [3] [µM] | TGI [4] | TGI [5] [µM] | TGI [6] [µM] | TGI [7] [µM] | TGI [8] | TGI [9] | other results
1 | CCc1ccccc1NC(=O)/C=C/c1ccccc1 | > 100 µM | – | – | – | – | – | – | – | – | –
2 | O=c1cc(-c2ccc(O)cc2)oc2cc(O[C@@H]3O[C@H](CO)[C@@H](O)[C@H](O)[C@H]3O)cc(O)c12 | > 100 µM | – | – | – | – | – | – | – | – | –
3 | CCc1cccc(C)c1N1C(=O)C(=O)C(c2nc3ccccc3o2)C(=O)C1=O | – | > 100 µM | > 100 | > 100 µM | > 100 | > 100 | > 100 | – | – | –
4 | Cc1cc(Cl)ccc1OCC(=O)Nc1nc(N)nc(N)n1 | > 100 µM | – | – | – | – | – | – | – | – | –
5 | COC(=O)C(CCC(=O)CCl)N1C(=O)c2ccccc2C1=O (stereo not given) | 23.9 µM | – | – | – | – | – | – | – | – | –
6 | Cc1cccc2c1c1ccc3c(c1n2C)C(=O)C=CC3=O | – | 23.9 µM | 5.21 | 53.5 µM | – | 8.3 | 4.22 | 21.1 µM | 49.6 µM | –
7 | CCOC(=O)CCC1(C(=O)OCC)CCCC1=O (stereo not given) | – | > 100 µM | > 100 | > 100 µM | > 100 | > 100 | > 100 | > 100 µM | > 100 µM | –
8 | Cc1cc(C)nc(/C(=N\NC(N)=O)C(=O)Nc2nc3ccc(C)cc3s2)c1 | – | > 100 µM | > 100 | > 100 µM | > 100 | > 93.5 | > 100 | > 81.9 µM | – | –
9 | CC1=C2C(=CC(C)(C)[C@@H]2O)C(=O)[C@](C)(O)C12CC2 | 0.0424 µM and 0.0278 µM | 0.0865 µM | 0.0825 | – | 0.0326 | 0.0189 | 0.0927 | 0.101 µM | – | GI50 [1]: 0.0126 µM
10 | COC(=O)CCC12CCC(=O)C1[C@@H](C(=O)OC)C[C@H]2C(=O)OC (stereo not given in full) | – | > 100 µM | > 100 | > 100 µM | > 100 | > 100 | > 100 | > 100 µM | > 100 µM | –
11 | Cc1ccc(Oc2ccccc2N)cc1 | – | > 100 µM | > 100 | > 100 µM | > 100 | > 100 | > 100 | > 100 µM | > 100 µM | –
12 | COc1ccc(OC(C(=O)O)C(C)C)c2c1CCCC2=O (stereo not given) | – | > 100 µM | > 100 | > 100 µM | > 100 | > 100 | > 100 | > 100 µM | > 100 µM | –
13 | O=C(O)/C=C\C(=O)Nc1ccccn1 | > 100 µM | – | – | – | – | – | – | – | – | –
14 | Cc1c(C(=O)/C=C/C=C/c2ccccc2)[n+](=O)c2ccccc2n1[O-] | – | > 100 µM | 29 | > 100 µM | 95.3 | > 100 | 51.2 | > 100 µM | – | –
15 | O=[N+]([O-])c1cccc(-c2nc(-c3ccccc3)c(-c3ccccc3)[nH]2)c1 | > 100 µM | – | – | – | – | – | – | – | – | –
16 | C#CCNC(=O)NCCCCC(NC(=O)OCc1ccccc1)C(=O)OCc1ccccc1 (stereo not given) | – | > 100 µM | > 100 | > 100 µM | 40.8 | > 100 | > 100 | > 73.5 µM | > 100 µM | –
17 | O=c1cccccc1NCCCCCCCNc1cccccc1=O | – | – | > 100 | > 100 µM | 32.8 | > 100 | > 100 | – | 35 µM | –
18 | CN(C)c1nc(=NCc2ccco2)ss1 | 33.7 µM | > 100 µM | 46.1 | > 100 µM | > 100 | > 34.6 | > 100 | – | – | –
19 | O=C(C#Cc1ccccc1)N1c2ccccc2CC1c1c[nH]c2ccccc12 (stereo not given) | – | – | 76.7 | 36.9 µM | – | 30 | 27.7 | 28.8 µM | 27.7 µM | –
20 | Cl/C(N=Nc1ccccc1)=N/Nc1ccccc1 | – | > 100 µM | – | > 100 µM | > 100 | > 100 | > 100 | – | > 100 µM | –

Row | Compound | TGI [1] | TGI [2] | TGI [3] [µM] | TGI [4] | TGI [5] [µM] | TGI [6] [µM] | TGI [7] [µM] | TGI [8] | TGI [9] | other results
21 | NNc1cnn(-c2ccccc2)c(=O)c1Cl | – | > 100 µM | > 100 | > 100 µM | – | > 100 | > 100 | > 100 µM | – | –
22 | N#C/C(=C\c1cccc(O)c1O)C(N)=O | – | – | > 100 | > 100 µM | 95.6 | > 100 | > 100 | > 100 µM | > 100 µM | –
23 | Cn1c(=O)c2[nH]c(SCCN3CCOCC3)nc2n(C)c1=S | > 100 µM | – | – | – | – | – | – | – | – | –
24 | CNc1ccc2ncccc2c1[N+](=O)[O-] | – | > 100 µM | > 100 | > 100 µM | > 100 | > 100 | > 100 | > 100 µM | > 100 µM | –
25 | CCCn1cnc2c(SCC(=O)O)nc(N)nc21 | > 100 µM | – | – | – | – | – | – | – | – | –
26 | CC[C@@]1(OC(=O)CN)C(=O)OCc2c1cc1n(c2=O)Cc2c-1nc1cc3c(cc1c2CCl)OCO3 | 0.645 µM | – | – | – | – | – | – | – | – | GI50 [1]: 0.0885 µM
27 | CCOC(=O)CN(Cn1cncn1)Cn1cncn1 | – | > 100 µM | > 100 | > 100 µM | 40.9 | 39.8 | > 100 | – | – | –
28 | O=C(O)c1cc(=O)c2c([nH]c3ccccc32)s1 | – | – | > 100 | > 100 µM | > 100 | – | > 100 | > 100 µM | > 100 µM | –
29 | COc1ccc(-c2cc(C(=O)Nc3cc(C(F)(F)F)cc(C(F)(F)F)c3)c3ccccc3n2)cc1 | – | 51.8 µM | 43.6 | 52.1 µM | 22.5 | 21.1 | 20.9 | 21.1 µM | – | –
30 | COC(=O)C1=C(CS(=O)c2ccc([N+](=O)[O-])cc2[N+](=O)[O-])C2C=CC1C2 (stereo not given) | – | > 100 µM | 37.6 | > 100 µM | 64.1 | 43 | 56.9 | 49.5 µM | 32.7 µM | –
31 | N/C(=N\NS(=O)(=O)c1ccccc1)Oc1ccc(Br)cc1Br | – | > 100 µM | > 100 | > 100 µM | > 100 | > 100 | > 100 | > 100 µM | > 100 µM | –
32 | CC1(c2cc3c(cc2Br)OCO3)SCCCS1 | – | – | > 100 | > 100 µM | 82.3 | > 100 | > 100 | > 100 µM | > 100 µM | –
33 | CC(C)(O)/C=C/C(=O)[C@](C)(O)[C@H]1[C@H](O)C[C@@]2(C)[C@@H]3CC=C4[C@@H](C[C@H](O)C(=O)C4(C)C)[C@]3(C)C(=O)C[C@]12C | – | 0.41 µM and 0.394 µM | 8.08 | 0.92 µM and 1.67 µM | – | 0.543 | 4.09 | 0.948 µM and 9.41 µM | 0.549 µM and 1.97 µM | GI50 [8]: 0.108 µM; GI50 [2]: 0.0838 µM; GI50 [3]: 0.119 µM; GI50 [9]: 0.116 µM and 0.34 µM; GI50 [4]: 0.203 µM; GI50 [6]: 0.108 µM; GI50 [7]: 0.0484 µM
34 | O=[N+]([O-])c1nccn1CC(O)CN1CCCCC1 (stereo not given) | > 100 µM | – | – | – | – | – | – | – | – | –
35 | Clc1cccc(N2CCN(CCCN3CCc4c([nH]c5ccccc45)C3c3cccnc3)CC2)c1 (stereo not given) | – | 36 µM | 27 | 9.39 µM | – | 27.9 | 24.4 | – | > 100 µM | GI50 [9]: 19.5 µM; GI50 [4]: 2.88 µM; GI50 [6]: 12.6 µM; GI50 [7]: 11.3 µM
36 | Cc1c2c(cc3c1C(=O)C(=O)C1=C3OC[C@@H]1C)C(C)(C)CCC2 | – | 32.3 µM | 59.5 | – | 55.7 | 28.5 | 37.6 | 31.9 µM | – | –
37 | Cc1nc2ccc(Br)cc2c(=O)n1-c1ccc(NC2OCC(O)C(O)C2O)cc1 (stereo not given) | > 100 µM | – | – | – | – | – | – | – | – | GI50 [1]: 43.9 µM and > 100 µM
38 | O=C1C(=O)N(c2ccc(Cl)cc2)C(=O)C(=O)C1c1nc2ccccc2s1 | – | > 100 µM | – | > 100 µM | > 100 | > 100 | > 100 | > 100 µM | – | –
39 | NC(=O)c1cc(N(CCO)CCO)c([N+](=O)[O-])cc1[N+](=O)[O-] | > 100 µM | – | – | – | – | – | – | – | – | –
40 | CCOc1ccc(/C(C=O)=C(\Cl)c2ccc(OC)cc2)cc1 | – | > 100 µM | > 100 | > 100 µM | > 100 | > 100 | > 100 | > 100 µM | – | –
